Data taken from patent publication US20080188502A1, “New Compounds I” (AstraZeneca AB, priority 2006, published 2008).
pKi: −log10 of the molar value. Structures can show the parent of a compound that is named as a salt.

What follows are molecules tested against T1, recombinant human GSK3β (Homo sapiens, UniProt P49841) (assay: GSK3β Scintillation Proximity Assay (ATP competition)). Conditions: inhibition constants calculated with Km of ATP for GSK3β of 20 μM; 1 μM ATP, 1 μM biotinylated peptide substrate.
T1 construct: purchased Dundee University, UK
T1 sequence (P49841 whole entry): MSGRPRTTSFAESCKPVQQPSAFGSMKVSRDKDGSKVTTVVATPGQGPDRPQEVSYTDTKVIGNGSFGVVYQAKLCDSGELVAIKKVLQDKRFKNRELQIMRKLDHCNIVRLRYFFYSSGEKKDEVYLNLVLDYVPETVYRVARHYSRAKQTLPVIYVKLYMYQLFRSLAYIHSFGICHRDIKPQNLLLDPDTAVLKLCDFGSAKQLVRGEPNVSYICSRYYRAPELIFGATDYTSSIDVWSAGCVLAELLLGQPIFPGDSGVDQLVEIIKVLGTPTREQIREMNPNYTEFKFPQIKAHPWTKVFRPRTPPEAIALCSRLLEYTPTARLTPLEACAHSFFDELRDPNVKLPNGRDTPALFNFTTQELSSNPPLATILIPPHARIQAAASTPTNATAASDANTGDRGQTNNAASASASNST
Type: biochemical
Experimental: Determination of ATP Competition in Scintillation Proximity GSK3β Assay.
GSK3β Scintillation Proximity Assay.
The competition experiments were carried out in duplicate with 10 different concentrations of the inhibitors in clear-bottom microtiter plates (Wallac, Finland). A biotinylated peptide substrate, Biotin-Ala-Ala-Glu-Glu-Leu-Asp-Ser-Arg-Ala-Gly-Ser(PO3H2)-Pro-Gln-Leu (AstraZeneca, Lund), was added at a final concentration of 1 μM in an assay buffer containing 1 mU recombinant human GSK3β (Dundee University, UK), 12 mM morpholinepropanesulfonic acid (MOPS), pH 7.0, 0.3 mM EDTA, 0.01% β-mercaptoethanol, 0.004% Brij 35 (a […] detergent), 0.5% glycerol and 0.5 μg BSA/25 μl. The reaction was initiated by the addition of 0.04 μCi [γ-^33P]ATP (Amersham, UK) and unlabelled ATP at a final concentration of 1 μM and assay volume of 25 μl. After incubation for 20 minutes at room temperature, each reaction was terminated by the addition of 25 μl stop solution containing 5 mM EDTA, 50 μM ATP, 0.1% Triton X-100 and 0.25 mg streptavidin coated Scintillation Proximity Assay (SPA) beads (Amersham, UK). After 6 hours the radioactivity was determined in a liquid scintillation counter (1450 MicroBeta Trilux, Wallac). The inhibition curves were analysed by non-linear regression using GraphPad Prism, USA. The Km value of ATP for GSK3β, used to calculate the inhibition constants (Ki) of the various compounds, was 20 μM.

| Compound | pKi |
| --- | --- |
| Cc1ncc(-c2nc(Nc3ccc(C(=O)N4CCN(C)CC4)nc3)ncc2F)n1C [Example 47, 4-(1,2-Dimethyl-1H-imidazol-5-yl)-5-fluoro-N-{6-[(4-methylpiperazin-1-yl)carbonyl]pyridin-3-yl}pyrimidin-2-amine] | 7.00 |
| Cc1ncc(-c2nc(Nc3ccc(C(=O)NCC(C)(C)CN(C)C)nc3)ncc2F)n1C1CCOCC1 [Example 39, N-(3-Dimethylamino-2,2-dimethyl-propyl)-5-[[5-fluoro-4-[2-methyl-3-(oxan-4-yl)imidazol-4-yl]pyrimidin-2-yl]amino]pyridine-2-carboxamide] | 6.80 |
| CN1CCN(C(=O)c2ncc(Nc3ncc(F)c(-c4cnc(C(F)(F)F)n4C4CCOCC4)n3)cc2Cl)CC1 [Example 43, [3-Chloro-5-[[5-fluoro-4-[3-(oxan-4-yl)-2-(trifluoromethyl)imidazol-4-yl]pyrimidin-2-yl]amino]pyridin-2-yl]-(4-methylpiperazin-1-yl)methanone] | 7.64 |
| CCN1CCN(C(=O)c2ccc(Nc3ncc(F)c(-c4cnc(C)n4C4CCOCC4)n3)cn2)CC1 [Example 17, (4-Ethylpiperazin-1-yl)-[5-[[5-fluoro-4-[2-methyl-3-(oxan-4-yl)imidazol-4-yl]pyrimidin-2-yl]amino]pyridin-2-yl]methanone] | 7.30 |
| O=C(c1ncc(Nc2ncc(F)c(-c3cnc(C(F)(F)F)n3C3CCOCC3)n2)cc1Cl)N1CCCCC1 [Example 57, N-[5-Chloro-6-(piperidin-1-ylcarbonyl)pyridin-3-yl]-5-fluoro-4-[1-(tetrahydro-2H-pyran-4-yl)-2-(trifluoromethyl)-1H-imidazol-5-yl]pyrimidin-2-amine hydrochloride] | 7.72 |
| Cc1ncc(-c2nc(Nc3ccc(C(=O)N(Cc4ccccc4)C(C)C)nc3)ncc2F)n1C1CCOCC1 [Example 30, N-Benzyl-5-[[5-fluoro-4-[2-methyl-3-(oxan-4-yl)imidazol-4-yl]pyrimidin-2-yl]amino]-N-propan-2-yl-pyridine-2-carboxamide] | 7.77 |
| Cc1ncc(-c2nc(Nc3ccc(C(=O)N4CCCC(C)C4)nc3)ncc2F)n1C1CCOCC1 (centres unmarked) [Example 14, [5-[[5-Fluoro-4-[2-methyl-3-(oxan-4-yl)imidazol-4-yl]pyrimidin-2-yl]amino]pyridin-2-yl]-(3-methyl-1-piperidyl)methanone] | 7.80 |
| CCN(C(=O)c1ccc(Nc2ncc(F)c(-c3cnc(C)n3C3CCOCC3)n2)cn1)C(C)C [Example 19, N-Ethyl-5-[[5-fluoro-4-[2-methyl-3-(oxan-4-yl)imidazol-4-yl]pyrimidin-2-yl]amino]-N-propan-2-yl-pyridine-2-carboxamide] | 7.60 |
| CCCN1CCN(C(=O)c2ccc(Nc3ncc(F)c(-c4cnc(C)n4C4CCOCC4)n3)cn2)CC1 [Example 37, [5-[[5-Fluoro-4-[2-methyl-3-(oxan-4-yl)imidazol-4-yl]pyrimidin-2-yl]amino]pyridin-2-yl]-(4-propylpiperazin-1-yl)methanone] | 7.25 |
| CCN(Cc1ccccc1)C(=O)c1ccc(Nc2ncc(F)c(-c3cnc(C)n3C3CCOCC3)n2)cn1 [Example 33, N-Benzyl-N-ethyl-5-[[5-fluoro-4-[2-methyl-3-(oxan-4-yl)imidazol-4-yl]pyrimidin-2-yl]amino]pyridine-2-carboxamide] | 7.80 |
| Cc1ncc(-c2nc(Nc3ccc(C(=O)N4CCC4)nc3)ncc2F)n1C [Example 46, N-[6-(Azetidin-1-ylcarbonyl)pyridin-3-yl]-4-(1,2-dimethyl-1H-imidazol-5-yl)-5-fluoropyrimidin-2-amine] | 7.41 |
| COC1CCN(C(=O)c2ccc(Nc3ncc(F)c(-c4cnc(C)n4C4CCOCC4)n3)cn2)CC1 [Example 25, [5-[[5-Fluoro-4-[2-methyl-3-(oxan-4-yl)imidazol-4-yl]pyrimidin-2-yl]amino]pyridin-2-yl]-(4-methoxy-1-piperidyl)methanone] | 7.55 |
| CCCN(CCC)C(=O)c1ccc(Nc2ncc(F)c(-c3cnc(C)n3C3CCOCC3)n2)cn1 [Example 24, 5-[[5-Fluoro-4-[2-methyl-3-(oxan-4-yl)imidazol-4-yl]pyrimidin-2-yl]amino]-N,N-dipropyl-pyridine-2-carboxamide] | 7.62 |
| Cn1c(-c2nc(Nc3cnc(C(=O)N4CCCCC4)c(Cl)c3)ncc2F)cnc1C(F)(F)F [Example 56, N-[5-Chloro-6-(piperidin-1-ylcarbonyl)pyridin-3-yl]-5-fluoro-4-[1-methyl-2-(trifluoromethyl)-1H-imidazol-5-yl]pyrimidin-2-amine hydrochloride] | 7.26 |
| CCS(=O)(=O)c1ccc(Nc2ncc(F)c(-c3cnc(C)n3C3CCOCC3)n2)cn1 [Example 51, (6-Ethanesulfonyl-pyridin-3-yl)-{5-fluoro-4-[2-methyl-3-(tetrahydro-pyran-4-yl)-3H-imidazol-4-yl]-pyrimidin-2-yl}-amine] | 7.68 |
| Cc1ncc(-c2nc(Nc3ccc(C(=O)N4CCC(c5ccc(F)cc5)CC4)nc3)ncc2F)n1C1CCOCC1 [Example 16, [5-[[5-Fluoro-4-[2-methyl-3-(oxan-4-yl)imidazol-4-yl]pyrimidin-2-yl]amino]pyridin-2-yl]-[4-(4-fluorophenyl)-1-piperidyl]methanone] | 8.05 |
| Cc1ncc(-c2nc(Nc3cnc(C(=O)N4CCN(C)CC4)c(Cl)c3)ncc2F)n1C [Example 49, N-[5-Chloro-6-[(4-methylpiperazin-1-yl)carbonyl]pyridin-3-yl]-4-(1,2-dimethyl-1H-imidazol-5-yl)-5-fluoropyrimidin-2-amine] | 7.72 |
| Cc1ncc(-c2nc(Nc3ccc(C(=O)N4CCC(F)CC4)nc3)ncc2F)n1C1CCOCC1 [Example 32, [5-[[5-Fluoro-4-[2-methyl-3-(oxan-4-yl)imidazol-4-yl]pyrimidin-2-yl]amino]pyridin-2-yl]-(4-fluoro-1-piperidyl)methanone] | 7.48 |
| Cc1ncc(-c2nc(Nc3ccc(C(=O)N4CC(C)CC(C)C4)nc3)ncc2F)n1C1CCOCC1 (centres unmarked) [Example 40, (3,5-Dimethyl-1-piperidyl)-[5-[[5-fluoro-4-[2-methyl-3-(oxan-4-yl)imidazol-4-yl]pyrimidin-2-yl]amino]pyridin-2-yl]methanone] | 7.80 |
| Cc1ncc(-c2nc(Nc3ccc(C(=O)N(C)C(C)C)nc3)ncc2F)n1C1CCOCC1 [Example 15, 5-[[5-Fluoro-4-[2-methyl-3-(oxan-4-yl)imidazol-4-yl]pyrimidin-2-yl]amino]-N-methyl-N-propan-2-yl-pyridine-2-carboxamide] | 7.37 |
| Cc1ncc(-c2nc(Nc3cnc(C(=O)N4CCC4)c(Cl)c3)ncc2F)n1C1CCOCC1 [Example 42, Azetidin-1-yl-[3-chloro-5-[[5-fluoro-4-[2-methyl-3-(oxan-4-yl)imidazol-4-yl]pyrimidin-2-yl]amino]pyridin-2-yl]methanone] | 7.96 |
| Cc1ncc(-c2nc(Nc3ccc(C(=O)N4CCC(F)(F)C4)nc3)ncc2F)n1C1CCOCC1 [Example 13, (3,3-Difluoropyrrolidin-1-yl)-[5-[[5-fluoro-4-[2-methyl-3-(oxan-4-yl)imidazol-4-yl]pyrimidin-2-yl]amino]pyridin-2-yl]methanone] | 7.47 |
| CCCCN1CCN(C(=O)c2ccc(Nc3ncc(F)c(-c4cnc(C)n4C4CCOCC4)n3)cn2)CC1 [Example 18, (4-Butylpiperazin-1-yl)-[5-[[5-fluoro-4-[2-methyl-3-(oxan-4-yl)imidazol-4-yl]pyrimidin-2-yl]amino]pyridin-2-yl]methanone] | 7.33 |
